pIC50: −log10 of the molar value.
System: CN0375-F725-PDC KRAS spheroid viability
Assay: Anticancer human tumor CN0375-F725-PDC patient-derived colon carcinoma cell line growth inhibition [KRAS2]
Details: spheroids with HUVEC and MSC; for pIC50: curve of first compound; for viability, T/C: stronger effect = lower value
Method in brief: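 Combination screen of spheroid viability in tumor-cell co-cultures with endothelial (HUVEC) and mesenchymal stem cell stroma. Each agent was tested in half-log dilutions, topping at clinical Cmax or at 10 microM without a known Cmax.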

[1] = second compound 0.1 µM, first compound 0.0316 µM
[2] = second compound 0.1 µM, first compound 0.1 µM
[3] = second compound 0.1 µM, first compound 0.316 µM
[4] = second compound 0.1 µM, first compound 1 µM
[5] = second compound 0.1 µM, first compound 3.16 µM
[6] = second compound 0.1 µM, first compound 10 µM
[7] = second compound 0.316 µM, first compound 0.0316 µM
[8] = second compound 0.316 µM, first compound 0.1 µM
[9] = second compound 0.316 µM, first compound 0.316 µM
[10] = second compound 0.316 µM, first compound 1 µM
[11] = second compound 0.316 µM, first compound 3.16 µM
[12] = second compound 0.316 µM, first compound 10 µM
[13] = second compound 1 µM, first compound 0.0316 µM
[14] = second compound 1 µM, first compound 0.1 µM
[15] = second compound 1 µM, first compound 0.316 µM
[16] = second compound 1 µM, first compound 1 µM
[17] = second compound 1 µM, first compound 3.16 µM
[18] = second compound 1 µM, first compound 10 µM
[19] = second compound 3.16 µM, first compound 0.0316 µM
[20] = second compound 3.16 µM, first compound 0.1 µM
[21] = second compound 3.16 µM, first compound 0.316 µM
[22] = second compound 3.16 µM, first compound 1 µM
[23] = second compound 3.16 µM, first compound 3.16 µM
[24] = second compound 3.16 µM, first compound 10 µM
[25] = second compound 10 µM, first compound 0.0316 µM
[26] = second compound 10 µM, first compound 0.1 µM
[27] = second compound 10 µM, first compound 0.316 µM
[28] = second compound 10 µM, first compound 1 µM
[29] = second compound 10 µM, first compound 3.16 µM
[30] = second compound 10 µM, first compound 10 µM
[31] = second compound 0.0316 µM, first compound 0.01 µM
[32] = second compound 0.0316 µM, first compound 0.0316 µM
[33] = second compound 0.0316 µM, first compound 0.1 µM
[34] = second compound 0.1 µM, first compound 0.00316 µM
[35] = second compound 0.1 µM, first compound 0.01 µM
[36] = second compound 0.316 µM, first compound 0.00316 µM
[37] = second compound 0.316 µM, first compound 0.01 µM
[38] = second compound 1 µM, first compound 0.00316 µM
[39] = second compound 1 µM, first compound 0.01 µM
[40] = second compound 3.16 µM, first compound 0.00316 µM
[41] = second compound 3.16 µM, first compound 0.01 µM
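Also: spheroids exposed to agents for 7 days.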

## CCNC(=O)CC1N=C(c2ccc(Cl)cc2)c2cc(OC)ccc2-n2c(C)nnc21 (stereo not given) + CNCc1ccccc1-c1csc(C(C)Nc2nc(C)nc3cc(OC)c(OC)cc23)c1
Second compound 0.1 µM
  pIC50: < 5.00
Second compound 0.316 µM
  pIC50: 5.17
Second compound 1 µM
  pIC50: 5.83
Second compound 3.16 µM
  pIC50: > 7.50
Second compound 10 µM
  pIC50: > 7.50
[1]
  viability, T/C: 103%
[2]
  viability, T/C: 89%
[3]
  viability, T/C: 76.2%
[4]
  viability, T/C: 75.2%
[5]
  viability, T/C: 67.3%
[6]
  viability, T/C: 50.9%
[7]
  viability, T/C: 92.5%
[8]
  viability, T/C: 85.2%
[9]
  viability, T/C: 77%
[10]
  viability, T/C: 67.7%
[11]
  viability, T/C: 58.4%
[12]
  viability, T/C: 45.6%
[13]
  viability, T/C: 57.8%
[14]
  viability, T/C: 65.7%
[15]
  viability, T/C: 63.7%
[16]
  viability, T/C: 52.7%
[17]
  viability, T/C: 40.9%
[18]
  viability, T/C: 20.7%
[19]
  viability, T/C: 0.58%
[20]
  viability, T/C: 0.33%
[21]
  viability, T/C: 0.36%
[22]
  viability, T/C: 0.35%
[23]
  viability, T/C: 0.39%
[24]
  viability, T/C: 0.46%
[25]
  viability, T/C: 0.3%
[26]
  viability, T/C: 0.29%
[27]
  viability, T/C: 0.46%
[28]
  viability, T/C: 0.31%
[29]
  viability, T/C: 0.71%
[30]
  viability, T/C: 0.4%

## Cn1nccc1Nc1nccc(-c2cc3c(s2)C(C)(C)N(CCN2CCOCC2)C3=O)n1 + CNCc1ccccc1-c1csc(C(C)Nc2nc(C)nc3cc(OC)c(OC)cc23)c1
Second compound 0.1 µM
  pIC50: 5.55
Second compound 0.316 µM
  pIC50: 5.93
Second compound 1 µM
  pIC50: 7.11
Second compound 3.16 µM
  pIC50: > 7.50
Second compound 10 µM
  pIC50: > 7.50
[1]
  viability, T/C: 98%
[2]
  viability, T/C: 85.6%
[3]
  viability, T/C: 71.1%
[4]
  viability, T/C: 61.9%
[5]
  viability, T/C: 48.8%
[6]
  viability, T/C: 37.2%
[7]
  viability, T/C: 86.5%
[8]
  viability, T/C: 80.8%
[9]
  viability, T/C: 64.7%
[10]
  viability, T/C: 53%
[11]
  viability, T/C: 39.4%
[12]
  viability, T/C: 33.2%
[13]
  viability, T/C: 57.4%
[14]
  viability, T/C: 53%
[15]
  viability, T/C: 25.3%
[16]
  viability, T/C: 25.9%
[17]
  viability, T/C: 7.98%
[18]
  viability, T/C: 3.51%
[19]
  viability, T/C: 0.61%
[20]
  viability, T/C: 0.29%
[21]
  viability, T/C: 0.39%
[22]
  viability, T/C: 0.2%
[23]
  viability, T/C: 0.2%
[24]
  viability, T/C: 0.21%
[25]
  viability, T/C: 0.28%
[26]
  viability, T/C: 0.25%
[27]
  viability, T/C: 0.17%
[28]
  viability, T/C: 0.26%
[29]
  viability, T/C: 1.05%
[30]
  viability, T/C: 0.49%

## CN(C)C/C=C/C(=O)Nc1cc2c(Nc3ccc(F)c(Cl)c3)ncnc2cc1O[C@H]1CCOC1 + C=CC(=O)N1CCN(c2nc(OCC3CCCN3C)nc3c2CCN(c2cccc4cccc(C)c24)C3)CC1CC#N
Second compound 0.0316 µM
  pIC50: < 7.00
Second compound 0.1 µM
  pIC50: < 7.00
Second compound 0.316 µM
  pIC50: < 7.00
Second compound 1 µM
  pIC50: < 7.00
Second compound 3.16 µM
  pIC50: > 9.50
Second compound 0.0316 µM, first compound 0.000316 µM
  viability, T/C: 107%
Second compound 0.0316 µM, first compound 0.001 µM
  viability, T/C: 94.9%
Second compound 0.0316 µM, first compound 0.00316 µM
  viability, T/C: 88.8%
[31]
  viability, T/C: 84.8%
[32]
  viability, T/C: 82.7%
[33]
  viability, T/C: 76.4%
Second compound 0.1 µM, first compound 0.000316 µM
  viability, T/C: 105%
Second compound 0.1 µM, first compound 0.001 µM
  viability, T/C: 98.6%
[34]
  viability, T/C: 88%
[35]
  viability, T/C: 87.7%
[1]
  viability, T/C: 80%
[2]
  viability, T/C: 77.5%
Second compound 0.316 µM, first compound 0.000316 µM
  viability, T/C: 102%
Second compound 0.316 µM, first compound 0.001 µM
  viability, T/C: 101%
[36]
  viability, T/C: 84.2%
[37]
  viability, T/C: 81.5%
[7]
  viability, T/C: 73.4%
[8]
  viability, T/C: 76.7%
Second compound 1 µM, first compound 0.000316 µM
  viability, T/C: 90.6%
Second compound 1 µM, first compound 0.001 µM
  viability, T/C: 96.7%
[38]
  viability, T/C: 83.4%
[39]
  viability, T/C: 75.9%
[13]
  viability, T/C: 75.6%
[14]
  viability, T/C: 74.1%
Second compound 3.16 µM, first compound 0.000316 µM
  viability, T/C: 30.9%
Second compound 3.16 µM, first compound 0.001 µM
  viability, T/C: 24.6%
[40]
  viability, T/C: 8.56%
[41]
  viability, T/C: 9.52%
[19]
  viability, T/C: 10.6%
[20]
  viability, T/C: 10.4%

## CC1COCCN1c1cc(-c2ccnn2C)c2ccnc(-c3ccn[nH]3)c2n1 (stereo not given) + C=CC(=O)N1CCN(c2nc(OCC3CCCN3C)nc3c2CCN(c2cccc4cccc(C)c24)C3)CC1CC#N
Second compound 0.0316 µM
  pIC50: < 5.50
Second compound 0.1 µM
  pIC50: < 5.50
Second compound 0.316 µM
  pIC50: < 5.50
Second compound 1 µM
  pIC50: < 5.50
Second compound 3.16 µM
  pIC50: > 8.00
[31]
  viability, T/C: 109%
[32]
  viability, T/C: 94.6%
[33]
  viability, T/C: 84.8%
Second compound 0.0316 µM, first compound 0.316 µM
  viability, T/C: 84.6%
Second compound 0.0316 µM, first compound 1 µM
  viability, T/C: 68.4%
Second compound 0.0316 µM, first compound 3.16 µM
  viability, T/C: 57.2%
[35]
  viability, T/C: 99.8%
[1]
  viability, T/C: 98.4%
[2]
  viability, T/C: 81.4%
[3]
  viability, T/C: 79.3%
[4]
  viability, T/C: 65.7%
[5]
  viability, T/C: 53.4%
[37]
  viability, T/C: 98%
[7]
  viability, T/C: 93.4%
[8]
  viability, T/C: 84.6%
[9]
  viability, T/C: 78.5%
[10]
  viability, T/C: 65.2%
[11]
  viability, T/C: 55.6%
[39]
  viability, T/C: 88.1%
[13]
  viability, T/C: 88.3%
[14]
  viability, T/C: 75.1%
[15]
  viability, T/C: 71%
[16]
  viability, T/C: 66.5%
[17]
  viability, T/C: 51%
[41]
  viability, T/C: 36.8%
[19]
  viability, T/C: 35.9%
[20]
  viability, T/C: 24.4%
[21]
  viability, T/C: 25%
[22]
  viability, T/C: 17.5%
[23]
  viability, T/C: 20.5%

## CCN1CCN(Cc2ccc(Nc3ncc(F)c(-c4cc(F)c5nc(C)n(C(C)C)c5c4)n3)nc2)CC1 + CNCc1ccccc1-c1csc(C(C)Nc2nc(C)nc3cc(OC)c(OC)cc23)c1
Second compound 0.1 µM
  pIC50: < 6.00
Second compound 0.316 µM
  pIC50: < 6.00
Second compound 1 µM
  pIC50: 7.48
Second compound 3.16 µM
  pIC50: > 8.50
Second compound 10 µM
  pIC50: > 8.50
[34]
  viability, T/C: 102%
[35]
  viability, T/C: 91.5%
[1]
  viability, T/C: 92.4%
[2]
  viability, T/C: 89.1%
[3]
  viability, T/C: 102%
[4]
  viability, T/C: 86.9%
[36]
  viability, T/C: 92.6%
[37]
  viability, T/C: 88.8%
[7]
  viability, T/C: 78.7%
[8]
  viability, T/C: 79.1%
[9]
  viability, T/C: 81.7%
[10]
  viability, T/C: 58.9%
[38]
  viability, T/C: 76%
[39]
  viability, T/C: 65.7%
[13]
  viability, T/C: 40.5%
[14]
  viability, T/C: 51.9%
[15]
  viability, T/C: 9.53%
[16]
  viability, T/C: 10.2%
[40]
  viability, T/C: 0.86%
[41]
  viability, T/C: 0.97%
[19]
  viability, T/C: 0.25%
[20]
  viability, T/C: 0.28%
[21]
  viability, T/C: 0.37%
[22]
  viability, T/C: 0.51%
Second compound 10 µM, first compound 0.00316 µM
  viability, T/C: 0.33%
Second compound 10 µM, first compound 0.01 µM
  viability, T/C: 0.19%
[25]
  viability, T/C: 0.51%
[26]
  viability, T/C: 0.3%
[27]
  viability, T/C: 0.17%
[28]
  viability, T/C: 0.4%
